In patent US20060074129A1, “Method for obtaining ozonized oils and vegetable fats and use of said products for pharmaceutical and cosmetic purposes” (priority 2002, published 2006):

Legend:
Candida albicans = experiment: Clinical study in vulvovaginal candidiasis; format: in vivo; conditions: for healing: final vaginal exudate, six days after the last ovule; for time at which symptoms and signs disappeared in a higher percent: in vivo
Procedure: Ninety women, 17 to 51 years old, with diagnosis of vulvovaginal candidiasis were studied. Patients were allocated at random in three groups: 30 were treated with ovules containing 10% ozonized theobroma oil, 30 were treated with Nistatine and 30 with Clotrimazole. To all patients, a vaginal exudate was performed at the beginning and at the end of the treatment, six days after the application of the last ovule. Also, an interrogation and a physical test were performed to them. The clinical symptoms of those patients were pruritus, burning and leucorrhea with higher prevalence. […] Taking into account the final exudate, a healing of 97% was obtained for the patients treated with ozonized theobroma oil ovules, 80% for the group treated with Clotrimazole and 50% for the patients treated with Nistatine.

[1] = tested on: moderate simple periodontitis; experiment: Random, controlled, single-blind phase III clinical trial in moderate simple periodontitis; format: in vivo, human
Procedure: In this study, we used ozonized sunflower oil in order to evaluate their effect on the treatment of moderate simple periodontitis and for preventing its recidivation. A random, controlled and single-blind phase III clinical trial was performed in 84 patients, older than 35 years, from both sexes. Ozonized sunflower oil was topically applied to 42 patients on the operated area and on the 7th, 14th and 21st days after operation on the adjacent periodontal tissues. The control group was formed by 42 patients that received the conventional treatment with chlorhexidine (aqueous solution 0.2%). An analytic index of hygiene, clinical and radiographical tests and microbiological controls was applied to the patients, at the beginning, on the 21st , 90th and 180th days and with intervals of 1 month until 9 months after operation. The effectiveness of the treatment after 180 days was considered as: good (satisfactory clinical and microbiological assessments) in 98% of the patients of the group treated with ozonized sunflower oil and in 78% of the control group; fairly good (some of the assessments were not satisfactory) for 2 and 17%, respectively, and in the category of bad (both assessments were not satisfactory) only 5% appears in the control group. Recidivation was more frequent in the control group (15%) than in the group treated with ozonized sunflower oil (5%). In general, the best clinical results (best evolution and healing during the study) and microbiological results were obtained in the group treated with ozonized sunflower oil, and also a lower percent of recidivation was found in that group.

[2] = tested on: acute ulcer-necrotizing gingivitis; experiment: Random phase III clinical assay in acute ulcer-necrotizing gingivitis; format: in vivo, human; conditions: three times a day for 7 days
Procedure: A random phase III clinical assay was performed in a group of 48 patients suffering from acute ulcer-necrotizing gingivitis. From those patients, 24 formed the group with ozonized sunflower oil, by topical applications on the lesions, three times a day, for 7 days. The control group (24 patients) was treated with local applications of aqueous solution of sodium perborate, as rinsings, with similar periodicity to that of the group treated with ozonized sunflower oil. The tests were performed 3 or 7 days after the beginning of the treatments.

blepharitis = experiment: Clinical study in blepharitis with acute bacterial infection; format: in vivo, human; conditions: topical on eyelid border, 7 days
Procedure: The sample was constituted by 40 patients suffering from blepharitis, with acute bacterial infection. Twenty patients were treated with topical ozonized sunflower oil, three times a day, by rubbing the border of the eyelid with an applicator soaked with ozonized sunflower oil, during 7 days. The 20 other patients were treated in the same way with gentamycin ointment (0.3%), 4 times a day for 7 days. Healing of 95 and 88% was obtained with ozonized sunflower oil and gentamycin, respectively, with significant differences between both groups.

Nistatine
healing (Candida albicans): 50%
time at which symptoms and signs disappeared in a higher percent (Candida albicans): between the ninth and twelfth days

[H]/N=C(\N/C(=N/[H])NCCCCCCNC(=N)NC(=N)Nc1ccc(Cl)cc1)Nc1ccc(Cl)cc1 [chlorhexidine]
effectiveness of the treatment considered bad ([1]; after 180 days, both assessments not satisfactory): 5%
effectiveness of the treatment considered good ([1]; after 180 days, satisfactory clinical and microbiological assessments): 78%
effectiveness of the treatment considered fairly good ([1]; after 180 days, some of the assessments not satisfactory): 17%
recidivation ([1]; human, in vivo): 15%

sodium perborate
patients healed [2]: 29.2%

gentamycin
healing (blepharitis): 88%

Clc1ccccc1C(c1ccccc1)(c1ccccc1)n1ccnc1 [Clotrimazole]
healing (Candida albicans): 80%
time at which symptoms and signs disappeared in a higher percent (Candida albicans): between the first and the fourth days of treatment
